{"source": "ChEMBL document CHEMBL4184235", "about": "“Design, synthesis, SAR and biological investigation of 3-(carboxymethyl)rhodanine and aminothiazole inhibitors of Mycobacterium tuberculosis Zmp1” (Bioorg Med Chem Lett, 2018)", "key": {"[1]": {"test_system": "Mycobacterium tuberculosis", "test": "Inhibition of N-terminal enterokinase-cleavable His-tagged full-length Mycobacterium tuberculosis Zmp1 expressed in Escherichia coli BL21(DE3) assessed as residual enzyme activity at 50 uM using MCA-Pro-Leu-Gly-Leu-Dpa-Ala-Arg-NH2 substrate by fluorometry"}, "[2]": {"test": "Inhibition of N-terminal enterokinase-cleavable His-tagged full-length Mycobacterium tuberculosis Zmp1 expressed in Escherichia coli BL21(DE3) assessed as reduction in enzyme activity at 50 uM using MCA-Pro-Leu-Gly-Leu-Dpa-Ala-Arg-NH2 substrate by fluorometry"}, "[3]": {"test": "Cytotoxicity against African green monkey Vero cells assessed as reduction in cell viability incubated for 72 hrs by MTT assay", "assay_type": "cell-based", "settings": "chlorocebus sabaeus"}, "[4]": {"test": "Cytotoxicity against human THP1 cells assessed as reduction in cell viability incubated for 72 hrs by MTT assay", "assay_type": "cell-based", "settings": "THP-1 cells"}, "[5]": {"test_system": "Mycobacterium tuberculosis", "test": "Antimycobacterial activity against Mycobacterium tuberculosis H37Ra ATCC […] assessed as reduction in bacterial growth incubated for 7 days by resazurin microtiter assay", "assay_type": "functional", "settings": "168 h"}, "[6]": {"test_system": "Mycobacterium tuberculosis", "test": "Antimycobacterial activity against Mycobacterium tuberculosis infected in human THP1 cells assessed as inhibition of microbial growth by measuring colony forming units at 10 ug/ml incubated for 72 hrs followed by plating on Middlebrook 7H11 medium for 21 days", "assay_type": "functional", "settings": "THP-1, read-out: GI"}, "[7]": {"test_system": "Mycobacterium tuberculosis", "test": "Antimycobacterial activity against Mycobacterium tuberculosis infected in human THP1 cells assessed as inhibition of microbial growth by measuring colony forming units at 100 ug/ml incubated for 72 hrs followed by plating on Middlebrook 7H11 medium for 21 days", "assay_type": "functional", "settings": "THP-1, read-out: GI"}}}
{"smiles": "O=C(O)[C@@H](Cc1ccccc1)Nc1nc(Cc2ccccc2)cs1", "values": [{"measurement": "Activity", "setting": "[1]", "result": 100, "unit": "%"}]}
{"smiles": "O=C(O)c1cccc(-c2csc(N[C@H](Cc3ccccc3)C(=O)O)n2)c1", "values": [{"measurement": "Activity", "setting": "[1]", "result": 100, "unit": "%"}]}
{"smiles": "COC(=O)c1cccc(Cc2csc(N[C@H](Cc3ccccc3)C(=O)O)n2)c1", "values": [{"measurement": "Activity", "setting": "[1]", "result": 100, "unit": "%"}]}
{"smiles": "COc1ccc(/C=C2\\SC(=S)N([C@H](Cc3ccccc3)C(=O)O)C2=O)cc1", "values": [{"measurement": "Activity", "setting": "[1]", "result": 12.3, "unit": "%"}, {"measurement": "IC50", "setting": "[2]", "result": 20.4, "unit": "µM"}]}
{"smiles": "O=C(O)c1cccc(/C=C2\\SC(=S)N([C@H](Cc3ccccc3)C(=O)O)C2=O)c1", "values": [{"measurement": "Activity", "setting": "[1]", "result": 13.4, "unit": "%"}, {"measurement": "IC50", "setting": "[2]", "result": 9.3, "unit": "µM"}, {"measurement": "CC50 at 72 h", "setting": "[3]", "result": "> 125", "unit": "µg/mL"}, {"measurement": "CC50 at 72 h", "setting": "[4]", "result": 102, "unit": "µg/mL"}, {"measurement": "MIC", "setting": "[5]", "result": "> 64", "unit": "µg/mL"}, {"measurement": "inhibition of growth at 10 µg/mL", "setting": "[6]", "result": 23.4, "unit": "%"}, {"measurement": "inhibition of growth at 100 µg/mL", "setting": "[7]", "result": 54.5, "unit": "%"}]}
{"smiles": "O=C(O)[C@@H](Cc1ccccc1)N1C(=O)/C(=C/c2cccs2)SC1=S", "values": [{"measurement": "Activity", "setting": "[1]", "result": 10.4, "unit": "%"}, {"measurement": "IC50", "setting": "[2]", "result": 11.4, "unit": "µM"}]}
{"smiles": "N#Cc1ccc(-c2csc(N[C@H](Cc3ccccc3)C(=O)O)n2)cc1", "values": [{"measurement": "Activity", "setting": "[1]", "result": 35, "unit": "%"}, {"measurement": "IC50", "setting": "[2]", "result": 41.3, "unit": "µM"}]}
{"smiles": "COc1cccc(Cc2csc(N[C@H](Cc3ccccc3)C(=O)O)n2)c1", "values": [{"measurement": "Activity", "setting": "[1]", "result": 100, "unit": "%"}]}
{"smiles": "O=C(O)CN1C(=O)/C(=C/c2cccc(C(=O)O)c2)SC1=S", "values": [{"measurement": "Activity", "setting": "[1]", "result": 11.2, "unit": "%"}, {"measurement": "IC50", "setting": "[2]", "result": 15.7, "unit": "µM"}]}
{"smiles": "C[C@H](C(=O)O)N1C(=O)/C(=C/c2ccc(C(=O)O)cc2)SC1=S", "values": [{"measurement": "Activity", "setting": "[1]", "result": 7.2, "unit": "%"}, {"measurement": "IC50", "setting": "[2]", "result": 2.9, "unit": "µM"}]}
{"smiles": "C[C@H](C(=O)O)N1C(=O)/C(=C/c2cccc(C(=O)O)c2)SC1=S", "values": [{"measurement": "Activity", "setting": "[1]", "result": 12.7, "unit": "%"}, {"measurement": "IC50", "setting": "[2]", "result": 1.3, "unit": "µM"}]}
{"smiles": "O=C(O)CN1C(=O)/C(=C/c2ccc(C(=O)O)cc2)SC1=S", "values": [{"measurement": "Activity", "setting": "[1]", "result": 10.3, "unit": "%"}, {"measurement": "IC50", "setting": "[2]", "result": 3.9, "unit": "µM"}]}
{"smiles": "N#Cc1ccc(/C=C2\\SC(=S)N([C@H](Cc3ccccc3)C(=O)O)C2=O)cc1", "values": [{"measurement": "Activity", "setting": "[1]", "result": 7.1, "unit": "%"}, {"measurement": "IC50", "setting": "[2]", "result": 6.6, "unit": "µM"}]}
{"smiles": "O=C(O)c1ccc(-c2csc(N[C@H](Cc3ccccc3)C(=O)O)n2)cc1", "values": [{"measurement": "Activity", "setting": "[1]", "result": 100, "unit": "%"}]}
{"smiles": "O=C(O)[C@@H](Cc1ccccc1)N1C(=O)/C(=C/c2ccncc2)SC1=S", "values": [{"measurement": "Activity", "setting": "[1]", "result": 19.1, "unit": "%"}, {"measurement": "IC50", "setting": "[2]", "result": 26.9, "unit": "µM"}]}
{"smiles": "COc1cccc(-c2csc(N[C@H](Cc3ccccc3)C(=O)O)n2)c1", "values": [{"measurement": "Activity", "setting": "[1]", "result": 91.9, "unit": "%"}]}
{"smiles": "O=C(O)c1ccc(/C=C2\\SC(=S)N([C@@H](Cc3ccccc3)C(=O)O)C2=O)cc1", "values": [{"measurement": "CC50 at 72 h", "setting": "[3]", "result": "> 125", "unit": "µg/mL"}, {"measurement": "CC50 at 72 h", "setting": "[4]", "result": 115, "unit": "µg/mL"}, {"measurement": "MIC", "setting": "[5]", "result": "> 64", "unit": "µg/mL"}, {"measurement": "inhibition of growth at 10 µg/mL", "setting": "[6]", "result": 57.4, "unit": "%"}, {"measurement": "inhibition of growth at 100 µg/mL", "setting": "[7]", "result": 58.3, "unit": "%"}]}
{"smiles": "O=C(O)[C@@H](Cc1ccccc1)Nc1nc(-c2ccc([N+](=O)[O-])cc2)cs1", "values": [{"measurement": "Activity", "setting": "[1]", "result": 36.3, "unit": "%"}, {"measurement": "IC50", "setting": "[2]", "result": 35.7, "unit": "µM"}]}
{"smiles": "COC(=O)c1cccc(/C=C2\\SC(=S)N([C@H](Cc3ccccc3)C(=O)O)C2=O)c1", "values": [{"measurement": "Activity", "setting": "[1]", "result": 13.2, "unit": "%"}, {"measurement": "IC50", "setting": "[2]", "result": 12.5, "unit": "µM"}, {"measurement": "CC50 at 72 h", "setting": "[3]", "result": 32.5, "unit": "µg/mL"}, {"measurement": "CC50 at 72 h", "setting": "[4]", "result": 21.9, "unit": "µg/mL"}, {"measurement": "MIC", "setting": "[5]", "result": 64, "unit": "µg/mL"}, {"measurement": "inhibition of growth at 10 µg/mL", "setting": "[6]", "result": 0.5, "unit": "%"}]}
{"smiles": "COc1ccc(-c2csc(N[C@H](Cc3ccccc3)C(=O)O)n2)cc1", "values": [{"measurement": "Activity", "setting": "[1]", "result": 100, "unit": "%"}]}
{"smiles": "COc1cccc(/C=C2\\SC(=S)N(CC(=O)O)C2=O)c1", "values": [{"measurement": "Activity", "setting": "[1]", "result": 18.9, "unit": "%"}, {"measurement": "IC50", "setting": "[2]", "result": 28.2, "unit": "µM"}]}
{"smiles": "COC(=O)c1ccc(Cc2csc(N[C@H](Cc3ccccc3)C(=O)O)n2)cc1", "values": [{"measurement": "Activity", "setting": "[1]", "result": 61, "unit": "%"}]}
{"smiles": "COc1cccc(/C=C2\\SC(=S)N([C@H](Cc3ccccc3)C(=O)O)C2=O)c1", "values": [{"measurement": "Activity", "setting": "[1]", "result": 10, "unit": "%"}, {"measurement": "IC50", "setting": "[2]", "result": 18.4, "unit": "µM"}]}
{"smiles": "O=C(OCc1ccccc1)c1cccc(/C=C2\\SC(=S)N([C@H](Cc3ccccc3)C(=O)O)C2=O)c1", "values": [{"measurement": "Activity", "setting": "[1]", "result": 13.5, "unit": "%"}, {"measurement": "IC50", "setting": "[2]", "result": 24, "unit": "µM"}, {"measurement": "CC50 at 72 h", "setting": "[3]", "result": 23.2, "unit": "µg/mL"}, {"measurement": "CC50 at 72 h", "setting": "[4]", "result": 11.2, "unit": "µg/mL"}, {"measurement": "MIC", "setting": "[5]", "result": 64, "unit": "µg/mL"}, {"measurement": "inhibition of growth at 10 µg/mL", "setting": "[6]", "result": 53.8, "unit": "%"}]}
{"smiles": "O=C(O)c1cccc(Cc2csc(N[C@H](Cc3ccccc3)C(=O)O)n2)c1", "values": [{"measurement": "Activity", "setting": "[1]", "result": 100, "unit": "%"}]}
{"smiles": "O=C(O)c1ccc(/C=C2\\SC(=S)N([C@H](Cc3ccccc3)C(=O)O)C2=O)cc1", "values": [{"measurement": "IC50", "setting": "[2]", "result": 0.87, "unit": "µM"}, {"measurement": "CC50 at 72 h", "setting": "[3]", "result": "> 125", "unit": "µg/mL"}, {"measurement": "CC50 at 72 h", "setting": "[4]", "result": "> 125", "unit": "µg/mL"}, {"measurement": "MIC", "setting": "[5]", "result": "> 64", "unit": "µg/mL"}, {"measurement": "inhibition of growth at 10 µg/mL", "setting": "[6]", "result": 0.1, "unit": "%"}, {"measurement": "inhibition of growth at 100 µg/mL", "setting": "[7]", "result": 60, "unit": "%"}]}
{"smiles": "O=C(OCCc1ccccc1)c1ccc(/C=C2\\SC(=S)N([C@H](Cc3ccccc3)C(=O)O)C2=O)cc1", "values": [{"measurement": "Activity", "setting": "[1]", "result": 58.7, "unit": "%"}]}
{"smiles": "COc1cccc(/C=C2\\SC(=S)N([C@H](C)C(=O)O)C2=O)c1", "values": [{"measurement": "Activity", "setting": "[1]", "result": 12.6, "unit": "%"}, {"measurement": "IC50", "setting": "[2]", "result": 23.4, "unit": "µM"}]}
{"smiles": "CC(C)COC(=O)c1ccc(/C=C2\\SC(=S)N([C@H](Cc3ccccc3)C(=O)O)C2=O)cc1", "values": [{"measurement": "Activity", "setting": "[1]", "result": 28.1, "unit": "%"}, {"measurement": "IC50", "setting": "[2]", "result": 43.9, "unit": "µM"}]}
{"smiles": "O=C(O)c1ccc(Cc2csc(N[C@H](Cc3ccccc3)C(=O)O)n2)cc1", "values": [{"measurement": "Activity", "setting": "[1]", "result": 100, "unit": "%"}]}
